Measured values: patent US5756538A, “Flavonoid and biflavonoid derivatives, their pharmaceutical compositions, their anxiolytic activity” (University of Strathclyde, priority 1993, dated 1998)
Where two headings read alike, the source gives them in different places.

Columns and labels:
benzodiazepine receptor = test: Competitive inhibition of 3H-flunitrazepam binding to benzodiazepine receptor (cerebral cortical membranes); parameters: species or system bovine
Description: (Competitive inhibition of H^3 -flunitrazepam to benzodiazepine receptor)
Binding of 3H-flunitrazepam (0.7 nM) to the benzodiazepine receptor was carried out in extensively washed cerebral cortical membranes.
H^3 -flunitrazepam has a Ki of […] to the benzodiazepine receptor.
IC50 values were obtained using flavonoids at different concentrations (10^-10 to 10^-3 M).
Structure - activity relationships of several flavonoids on
the ^3 H Flunitrazepam binding to bovine brain membranes.

[1] = Medina et al. 1990; cited from earlier work
[2] = test system: locus coeruleus noradrenaline; test: Noradrenaline levels in locus coeruleus after immobilization stress; type: in vivo, rats; settings: 1 mg/kg i.p., 30 min before 90-min stress session
Description: Rats were submitted to a 90-minute immobilization stress session in a plastic cylinder. The locus coeruleus was dissected out after killing by decapitation and noradrenaline assessed by HPLC with electrochemical detection. Doses were 1 mg/kg for each substance, injected i.p., 30 minutes before the stress session.

benzodiazepine receptors = settings: Medina et al. 1990; cited from earlier work
mice [3] = test: Horizontal wire test (muscle relaxation); type: in vivo, mice (male CF1)
Description: (d) Horizontal Wire Test: It consisted of an horizontally strung wire (1 mm diameter, 15 cm long), placed at 20 cm from the table. Mice were lifted by the tail, allowed to grasp the wire with their forepaws and released. […] After two trials, performed at 5 min. intervals, the test took place. A myorelaxant drug, like diazepam at high doses, will impair the ability of mice to grasp the wire. Generally, this state of muscle relaxation is commonly associated with sedation.
(§1) All the injections were given intraperitoneally (i.p.). […] Testing was carried out `blind`. All data were submitted to analysis of variance (ANOVA).
The test took place after two trials, executed after a 5 min interval.

mice [4] = test: Holeboard test (exploratory activity, sedation); type: in vivo, mice (male CF1)
Description: (b) Holeboard Test: consisted of a wood box (60×60×30 cm) with four 2 cm diameter holes equidistant in the floor. The number of head-dips and the time spent head-dipping were counted during 5 min. An increase in the number and the time spent head-dipping implies a greater exploratory activity.
as §1

mice [5] = test: Locomotor activity test (OPTO-VARIMEX); settings: 0.6-1 mg/kg i.p., 20 min after injection
Description: Male CF1 mice from our breeding stock weighing 28-35 g were used. The animals were placed in groups of 10-12 with free access to water and food, and maintained on a 12 h/12 h day-night cycle.
Diazepam (DZ; Hoffman-La Roche) and the flavonoids were dissolved in DMSO 40%, NaOH 0.1N (7:3: v/v) at pH 8.2 Control animals were injected with the same vehicle (VEH). RO 15-1788 (Hoffmann-La Roche) was suspended in DMSO 10%, propyleneglycol 10% in distilled water.
(c) Locomotor Activity Test: we used an OPTO-VARIMEX apparatus consisting of a glass box (36×15×20 cm) and two lateral bars with 15 light beams (0.32 cm diameter, beam spacing 2.65 cm). The apparatus detects automatically all the mouse movements, and discriminates between total and ambulatory activity. The locomotor activity (number of movements across the beams) was counted during 5 min. An increase in the number of transitions through the beams reflects an augmented locomotor activity.
The general procedure for all the tests is as follows: mice were injected with vehicle or the drug solution 20 min before the beginning of the test and put into another home cage. Ro 15-1788, a specific BZD receptor antagonist was injected 10 min before the tested drug. All the injections were given intraperitoneally (i.p.). Control mice were tested in each session, in parallel with those animals receiving the test drug or diazepam. Testing was carried out `blind`. All data were submitted to analysis of variance (ANOVA). Post-hoc comparisons between individual treatments and controls were made using Dunnett's t-test.
FIGS. 15, 16, 17 and 18 show ambulatory locomoter activity counts during a 5 min. test session in an OPTO-Varimex apparatus, 20 min. after i.p. injection with a mixture of brominated flavones (0.6,1,3 mg/kg), FIG. 15; 2' chlorinated chrysin (1,3 mg/kg); FIG. 16; 2' fluorinated chrysin (3 mg/kg), FIG. 17; 6,8 dibromoflavone, FIG. 18. Data are expressed as medians (interquartile range) of (n) number of animals.

mice [6] = test: Elevated plus maze (anxiety); type: in vivo, mice (male CF1); settings: for Total arm entries: 5 min test, mean ± S.E.M.
Description: (a) Elevated Plus Maze: consisted of 4 perpendicularly disposed wood arms (20×5 cm; two had 35 cm high wood walls, and two were open) linked by a central 10×10 cm square. The maze was suspended 50 cm from the room floor. Animals were placed on the central part of the maze facing a closed arm. This test has been widely validated to measure anxiety in rodents. The number of entries into and the time spent in the open and closed arms were counted during 5 min. […] Total exploratory activity (number of entries in both arms) was also determined.
as §1

[7] = 1 mg/kg i.p., 20 min after injection

With `O=c1cc(-c2ccccc2)oc2cc(O)cc(O)c12` [chrysin, 5,7-dihydroxyflavone] the “Benzodiazepine ligand behaviour / affinity relative to 3H-flunitrazepam” value (benzodiazepine receptor) was “benzodiazepine ligand behaviour similar to that of ^3 H-flunitrazepam”, the IC50 (benzodiazepine receptor; 3H-flunitrazepam 0.7 nM, read-out: IC50 at the benzodiazepine receptor) was 700 to 3000 nM and the IC50 (benzodiazepine receptor; bovine brain membranes, 0.7 nM 3H-flunitrazepam, read-out: 3H Flunitrazepam binding IC50) was 2000 nM. The Anticonvulsant properties [1] was “anticonvulsant properties”, the “Noradrenaline decrease in locus coeruleus provoked by immobilization stress” value [2] was “dampened the noradrenaline decrease” and the “Potency vs diazepam on stress-provoked noradrenaline decrease” value [2] was “almost equipotent with diazepam”. For the same molecule, the “Binding properties for benzodiazepine receptors” value (benzodiazepine receptors) was “binding properties for benzodiazepine receptors”, the “Effect in horizontal wire test / muscle relaxant effect” value (mice [3]; 0.6-30 mg/kg i.p.) was “ineffective in the same test and produced no muscle relaxant effect” and the “Muscle relaxation (summary)” value (mice [3]; i.p.) was “did not exhibit sedation or muscle relaxation”. For the same molecule, the Time spent head-dipping (mice [4]; 3 mg/kg i.p.) was “significant increase in the time spent head-dipping”, the Sedative effects (mice [4]; 10 mg/kg i.p.) was “did not elicit sedative effects” and the “Sedation (summary)” value (mice [4]; i.p.) was “did not exhibit sedation”. For the same molecule, the Locomotor activity (mice [5]) was “significant increase in locomotor activity”, the “Percentage of entries in the open arms” value (mice [6]; [7]) was “increase in both parameters (p<0.01)” and the “Percentage of the time spent on the open arms” value (mice [6]; [7]) was “increase in both parameters (p<0.01)”. The Total arm entries (mice [6]; [7]) was 9.9 ± 0.8, the Total arm entries (mice [6]; 3 mg/kg i.p., 20 min after injection) was 8.7 ± 1.1 and the Total arm entries (mice [6]; 10 mg/kg i.p., 20 min after injection) was 10.2 ± 1.1. The “Total arm entries, with and without RO 15-1788” value (mice [6]; chrysin 1 mg/kg, RO 15-1788 3 mg/kg, F (2,49)=3.18) was “No significant differences were found”, the “Anxiolytic effect in the elevated plus maze” value (mice [6]; i.p.) was “had anxiolytic effects” and the “Total arm entries, difference from controls” value (mice [6]; i.p., doses of Table I) was “No differences were observed”. The “Anxiolytic effect in the elevated plus maze” value (mice [6]; i.p., listed as CHRY) was “displayed an anxiolytic effect”.
